From patent publication US20190225650A1, “PEPTIDOMIMETIC MACROCYCLES AND USE THEREOF IN REGULATING HIF1ALPHA” (AILERON THERAPEUTICS, INC., priority 2013, published 2019)
Bridge positions count the residues as written; N and C are the ends. Square brackets hold non-standard residues; d marks the D form. Peptide text beside a SMILES is read from it. S5 = C=CCCC[C@](C)(N)C(=O)O; Nle = CCCC[C@H](N)C(=O)O

Test system: HRE-bla ME-180 cells
Test: Reporter gene assay (HRE-bla ME-180 HIF reporter, GeneBLAzer)
Format: cell-based, human
Settings: for EC50: 24 hour normoxia
Description: The following reagents were used:
• DMEM+GutaMAX: (#10569044, Invitrogen) • Black clear bottom plates: (#3603, Costar) • HRE-bla-ME-180 cell line: (#K1644, Invitrogen) • Gene-Blazer reagent & protocol: (#K1096, Invitrogen) • Plate reader: Biotek Synergy 2 • Chetomin: (C9623, Sigma)
4 hours prior to experiment: HRE-bla ME-180 cells were seeded at a density of 20,000 cells/well in a volume of 180 μl in black clear bottom 96-well plates. 180 μl of assay medium was added to the cell-free control wells. Incubation was conducted at 37° C., 5% CO2 for 4 hours.
Diluted chetomin was used as a positive control. Chetomin was diluted in 100% DMSO to a 10 mM stock concentration. A 1 mM stock of chetomin was prepared in 100% DMSO. Then the 1 mM chetomin stock was serially diluted in 1:4 in 100% DMSO. Finally, 50, 12.5, 3.125, 0.78, 0.2, 0.05 μM stock of chetomin in 5% DMSO/water were prepared by adding 114 μL water+6 μL chetomin in DMSO.
Test peptides were diluted before use. The test peptides were diluted in 100% DMSO to a 10 mM stock concentration. Then each 10 mM peptide stock was diluted in 1:3 in 100% DMSO. Finally, 300, 100, 33.3, 11.1, 3.7, 1.2 μM stock of each peptide in 5% DMSO/water were prepared by adding 129.2 μL water+4 μL peptide in DMSO.
20 μl of peptide, chetomin dilution, or DMSO/water control were added to the appropriate wells of a plate to achieve 200 μL final volumes in 0.3% DMSO/media. The plate was first incubated for 18-20 hours in normoxia incubator (37° C. in humidified 5% CO2, 20% O2 atmosphere). Then the plate was transferred to hypoxia incubator for 24 hours (37° C. in humidified 5% CO2, 1% O2 atmosphere)
6× LiveBLAzer™-FRET B/G (CCF4-AM) Substrate Mixture was prepared according to CellSensor™ HRE-bla ME-180 Cell-based Assay Protocol (Invitrogen) and added into each well. Solution A (CCF4-AM) was reconstituted in DMSO to a working concentration of 1 mM, divided in aliquots, and stored at −20° C. The 6× LiveBLAzer-FRET B/G (CCF4-AM) Substrate mixture was prepared by mixing 6 μl of Solution A, 60 μl of Solution B, and 934 μl Solution C.
The plates were removed from incubator and equilibrated to RT for a few minutes. Then 20 μl of 6× Substrate mixture was added to each well. The plates were then incubated at room temperature for 3 hr in the dark and read at 409 Ex/460Em and 409Ex/530Em using the “GeneBlazer-Tungsten with export” program on the Synergy 2.
The average percentage of maximum inhibition was obtained by comparing the peptide treated cells (30 μM) to DMSO vehicle control treated cells. The results are shown in the columns “ME-180 HIF Reporter EC50 (μM) −24 hr normoxia” and “18 h Avg % max inhibition at top conc (HIF Rptr-24 hrsnormoxia) (μM)” of Table 6.

Row | SMILES | EC50 [µM] | 18 h Avg % max inhibition at top conc (HIF Rptr-24 hrs normoxia) (μM)
1 | CCCC[C@H](NC(=O)[C@H](CC(C)C)NC(=O)[C@@H](NC(=O)[C@H](CCC(=O)O)NC(=O)[C@H](CCC(=O)O)NC(=O)[C@H](CC(=O)O)NC(=O)[C@@H](NC(=O)[C@H](Cc1ccccc1)NC(C)=O)[C@@H](C)CC)C(C)C)C(=O)N[C@@]1(C)CCCC=CCCC[C@@](C)(C(=O)N[C@@H](CCCC)C(=O)N[C@@H](C)C(=O)N[C@@H](CC(C)C)C(=O)N[C@@H](CC(=O)O)C(=O)N[C@@H](CCCNC(=N)N)C(=O)N[C@H](C(N)=O)[C@@H](C)CC)NC(=O)[C@H](C)NC(=O)[C@H](C(C)C)NC(=O)[C@H](CC(C)C)NC1=O [SP-19] (Ac-FIDEEVL[Nle][S5]LVA[S5][Nle]ALDRI-NH2; staple 9-13) | 5 to 15 | +++ (≤25 but <50: +++)
2 | CCCC[C@H](NC(=O)[C@H](CC(C)C)NC(=O)[C@@H](NC(=O)[C@H](CCC(=O)O)NC(=O)[C@H](CCC(=O)O)NC(=O)[C@H](CC(=O)O)NC(=O)[C@@H](NC(=O)[C@H](Cc1ccccc1)NC(C)=O)[C@@H](C)CC)C(C)C)C(=O)N[C@@]1(C)CCCC=CCCC[C@@](C)(C(=O)N[C@@H](C)C(=O)N[C@@H](C)C(=O)N[C@@H](CC(C)C)C(=O)N[C@@H](CC(=O)O)C(=O)N[C@@H](CCCNC(=N)N)C(=O)N[C@H](C(N)=O)[C@@H](C)CC)NC(=O)[C@H]([C@@H](C)CC)NC(=O)[C@H](C(C)C)NC(=O)[C@H](CC(C)C)NC1=O [SP-20] (Ac-FIDEEVL[Nle][S5]LVI[S5]AALDRI-NH2; staple 9-13) | 5 to 15 | ++++ (≥50: ++++)
3 | CCCC[C@H](NC(=O)[C@H](CC(C)C)NC(=O)[C@@H](NC(=O)[C@H](CCC(=O)O)NC(=O)[C@H](CCC(=O)O)NC(=O)[C@H](CC(=O)O)NC(=O)[C@@H](NC(=O)[C@H](Cc1ccccc1)NC(C)=O)[C@@H](C)CC)C(C)C)C(=O)N[C@@]1(C)CCCC=CCCC[C@@](C)(C(=O)N[C@@H](CCCC)C(=O)NCC(=O)N[C@@H](CC(C)C)C(=O)N[C@@H](CC(=O)O)C(=O)N[C@@H](CCCNC(=N)N)C(=O)N[C@H](C(N)=O)[C@@H](C)CC)NC(=O)[C@H]([C@@H](C)CC)NC(=O)[C@H](C(C)C)NC(=O)[C@H](CC(C)C)NC1=O [SP-21] (Ac-FIDEEVL[Nle][S5]LVI[S5][Nle]GLDRI-NH2; staple 9-13) | 5 to 15 | ++++ (≥50: ++++)
4 | CCCC[C@H](NC(=O)[C@H](CC(C)C)NC(=O)[C@@H](NC(=O)[C@H](CCC(=O)O)NC(=O)[C@H](CCC(=O)O)NC(=O)[C@H](CC(=O)O)NC(=O)[C@@H](NC(=O)[C@H](Cc1ccccc1)NC(C)=O)[C@@H](C)CC)C(C)C)C(=O)N[C@@]1(C)CCCC=CCCC[C@@](C)(C(=O)N[C@@H](CCCC)C(=O)N[C@@H](C)C(=O)N[C@@H](CC(C)C)C(=O)N[C@@H](CC(=O)O)C(=O)N[C@@H](CCCNC(=N)N)C(=O)N[C@@H](C)C(N)=O)NC(=O)[C@H]([C@@H](C)CC)NC(=O)[C@H](C(C)C)NC(=O)[C@H](CC(C)C)NC1=O [SP-25] (Ac-FIDEEVL[Nle][S5]LVI[S5][Nle]ALDRA-NH2; staple 9-13) | 5 to 15 | +++ (≤25 but <50: +++)
5 | CC[C@H](C)[C@H](NC(=O)[C@H](Cc1ccccc1)NC(C)=O)C(=O)N[C@@H](CC(=O)O)C(=O)N[C@@H](CCC(=O)O)C(=O)N[C@@H](CCC(=O)O)C(=O)N[C@H](C(=O)N[C@@H](CC(C)C)C(=O)N[C@@H](C)C(=O)N[C@@]1(C)CCCC=CCCC[C@@](C)(C(=O)N[C@@H](C)C(=O)N[C@@H](C)C(=O)N[C@@H](CC(C)C)C(=O)N[C@@H](CC(=O)O)C(=O)N[C@@H](CCCNC(=N)N)C(N)=O)NC(=O)[C@H]([C@@H](C)CC)NC(=O)[C@H](C(C)C)NC(=O)[C@H](CC(C)C)NC1=O)C(C)C [SP-28] (Ac-FIDEEVLA[S5]LVI[S5]AALDR-NH2; staple 9-13) | 15 to 30 | ++++ (≥50: ++++)

The next lines start with results.

Row | EC50 [µM] | SMILES | 18 h Avg % max inhibition at top conc (HIF Rptr-24 hrs normoxia) (μM)
6 | 5 to 15 | CCCC[C@H](NC(=O)[C@H](CC(C)C)NC(=O)[C@@H](NC(=O)[C@H](CCC(=O)O)NC(=O)[C@H](CCC(=O)O)NC(=O)[C@H](CC(=O)O)NC(=O)[C@@H](NC(=O)[C@H](Cc1ccccc1)NC(C)=O)[C@@H](C)CC)C(C)C)C(=O)N[C@@]1(C)CCCC=CCCC[C@@](C)(C(=O)N[C@@H](CCCC)C(=O)N[C@@H](C)C(=O)N[C@@H](C)C(=O)N[C@@H](CC(=O)O)C(=O)N[C@@H](CCCNC(=N)N)C(=O)N[C@H](C(N)=O)[C@@H](C)CC)NC(=O)[C@H]([C@@H](C)CC)NC(=O)[C@H](C(C)C)NC(=O)[C@H](CC(C)C)NC1=O [SP-22] (Ac-FIDEEVL[Nle][S5]LVI[S5][Nle]AADRI-NH2; staple 9-13) | ++++ (≥50: ++++)
7 | 5 to 15 | CCCC[C@H](NC(=O)[C@H](CC(C)C)NC(=O)[C@@H](NC(=O)[C@H](CCC(=O)O)NC(=O)[C@H](CCC(=O)O)NC(=O)[C@H](CC(=O)O)NC(=O)[C@@H](NC(=O)[C@H](Cc1ccccc1)NC(C)=O)[C@@H](C)CC)C(C)C)C(=O)N[C@@]1(C)CCCC=CCCC[C@@](C)(C(=O)N[C@@H](CCCC)C(=O)N[C@@H](C)C(=O)N[C@@H](CC(C)C)C(=O)N[C@@H](C)C(=O)N[C@@H](CCCNC(=N)N)C(=O)N[C@H](C(N)=O)[C@@H](C)CC)NC(=O)[C@H]([C@@H](C)CC)NC(=O)[C@H](C(C)C)NC(=O)[C@H](CC(C)C)NC1=O [SP-23] (Ac-FIDEEVL[Nle][S5]LVI[S5][Nle]ALARI-NH2; staple 9-13) | ++++ (≥50: ++++)
8 | 5 to 15 | CCCC[C@H](NC(=O)[C@H](CC(C)C)NC(=O)[C@@H](NC(=O)[C@H](CCC(=O)O)NC(=O)[C@H](CCC(=O)O)NC(=O)[C@H](CC(=O)O)NC(=O)[C@@H](NC(=O)[C@H](Cc1ccccc1)NC(C)=O)[C@@H](C)CC)C(C)C)C(=O)N[C@@]1(C)CCCC=CCCC[C@@](C)(C(=O)N[C@@H](CCCC)C(=O)N[C@@H](C)C(=O)N[C@@H](CC(C)C)C(=O)N[C@@H](CC(=O)O)C(=O)N[C@@H](C)C(=O)N[C@H](C(N)=O)[C@@H](C)CC)NC(=O)[C@H]([C@@H](C)CC)NC(=O)[C@H](C(C)C)NC(=O)[C@H](CC(C)C)NC1=O [SP-24] (Ac-FIDEEVL[Nle][S5]LVI[S5][Nle]ALDAI-NH2; staple 9-13) | ++++ (≥50: ++++)
9 | 5 to 15 | CC[C@H](C)[C@H](NC(=O)[C@H](CCCNC(=N)N)NC(=O)[C@H](CC(=O)O)NC(=O)[C@H](CC(C)C)NC(=O)[C@H](C)NC(=O)[C@H](C)NC(=O)[C@]1(C)CCCC=CCCC[C@](C)(NC(=O)[C@H](C)NC(=O)[C@H](CC(C)C)NC(=O)[C@@H](NC(=O)[C@H](CCC(=O)O)NC(=O)[C@H](CCC(=O)O)NC(=O)[C@H](CC(=O)O)NC(=O)[C@@H](NC(=O)[C@H](Cc2ccccc2)NC(C)=O)[C@@H](C)CC)C(C)C)C(=O)N[C@@H](CC(C)C)C(=O)N[C@@H](C(C)C)C(=O)N[C@@H]([C@@H](C)CC)C(=O)N1)C(N)=O [SP-26] (Ac-FIDEEVLA[S5]LVI[S5]AALDRI-NH2; staple 9-13) | ++++ (≥50: ++++)
10 | 5 to 15 | CCCC[C@H](NC(=O)[C@H](CC(C)C)NC(=O)[C@@H](NC(=O)[C@H](CCC(=O)O)NC(=O)[C@H](CCC(=O)O)NC(=O)[C@H](CC(=O)O)NC(=O)[C@@H](NC(=O)[C@H](Cc1ccccc1)NC(C)=O)[C@@H](C)CC)C(C)C)C(=O)N[C@@]1(C)CCCC=CCCC[C@@](C)(C(=O)N[C@@H](CCCC)C(=O)N[C@@H](C)C(=O)N[C@@H](CC(C)C)C(=O)N[C@@H](CC(=O)O)C(=O)N[C@@H](CCCNC(=N)N)C(N)=O)NC(=O)[C@H]([C@@H](C)CC)NC(=O)[C@H](C(C)C)NC(=O)[C@H](CC(C)C)NC1=O [SP-27] (Ac-FIDEEVL[Nle][S5]LVI[S5][Nle]ALDR-NH2; staple 9-13) | ++++ (≥50: ++++)
